Data: patent US20240423992A1, “BIOMARKERS FOR TREATING LIVER DISORDERS WITH THR-B AGONISTS AND RELATED USES” (Madrigal Pharmaceuticals, Inc., priority 2023, published 2024)

Experiments:
Format in all cases: in vivo, human
[1] = tested on: adults with nonalcoholic fatty liver disease (NAFLD)/presumed nonalcoholic steatohepatitis (NASH); assay: 52-week Phase 3 trial (Example 1): sex hormone levels; details: Week 52
Procedure: (§1) A 52-week randomized, double-blind, placebo-controlled Phase 3 trial was conducted to evaluate the safety and effect of resmetirom, an oral, once-daily, liver-targeted thyroid hormone receptor-β selective agonist, on multiple biomarkers in adults with nonalcoholic fatty liver disease (NAFLD)/presumed nonalcoholic steatohepatitis (NASH). Patients were randomized to three double-blind arms (100 mg resmetirom, 80 mg resmetirom, or placebo) or one open-label arm (100 mg resmetirom). Common concomitant medications across the 4 arms were antidiabetes drugs (such as glucagon-like peptide-1 receptor agonists (GLP-1 RAs), metformin, pioglitazone, and sodium/glucose cotransporter-2 inhibitors (SGLT2i)) and drugs to manage dyslipidemia (statins).
Sex hormone levels after 52 weeks of resmetirom treatment are shown in Table A. Thyroid hormone levels after 52 weeks of resmetirom treatment are reported in Table B.

[2] = tested on: adults with nonalcoholic fatty liver disease (NAFLD)/presumed nonalcoholic steatohepatitis (NASH); assay: 52-week Phase 3 trial (Example 1): hepatic fat by MRI-PDFF
Procedure: as §1

[3] = tested on: adults with nonalcoholic fatty liver disease (NAFLD)/presumed nonalcoholic steatohepatitis (NASH); assay: 52-week Phase 3 trial (Example 1): liver volume, open-label arm; details: for Liver volume, mean reduction from baseline: open-label 100 mg resmetirom arm
Procedure: as §1
Liver volume was evaluated in the open-label 100 mg resmetirom arm at Week 52. Liver volume was reduced from baseline by a mean of 21% and 23% following 16 and 52 weeks of resmetirom treatment, respectively (FIGS. 3A and 3B). […] Correcting hepatic fat reduction for reduced liver volume led to an average hepatic fat reduction of 61% in the open-label arm.

[4] = Resmetirom 80 mg DB vs Placebo DB
[5] = Resmetirom 100 mg DB vs Placebo DB

**Q.** `CC(C)c1cc(Oc2c(Cl)cc(-n3nc(C#N)c(=O)[nH]c3=O)cc2Cl)n[nH]c1=O` [Resmetirom, 2-[3,5-dichloro-4-[(6-oxo-5-propan-2-yl-1H-pyridazin-3-yl)oxy]phenyl]-3,5-dioxo-1,2,4-triazine-6-carbonitrile] was tested. Which “Estradiol (female) LSM Difference” value [1, 4] did it give?
**A.** 7.1 ng/L

**Q.** And the “Estradiol (male) LSM Difference” value [1, 4]?
**A.** 4.8 ng/L

**Q.** And the “FSH (female) LSM Difference” value [1, 4]?
**A.** −1.1 IU/L

**Q.** What about the “FSH (male) LSM Difference” value [1, 4] of the same molecule?
**A.** 0.2 IU/L

**Q.** What about the “Free testosterone (female) LSM Difference” value [1, 4] of the same molecule?
**A.** 0.0002 µg/L

**Q.** And the “Free testosterone (male) LSM Difference” value [1, 4]?
**A.** 0.0115 µg/L

**Q.** What about the “LH (female) LSM Difference” value [1, 4] of the same molecule?
**A.** −0.9 IU/L

**Q.** What about the “LH (male) LSM Difference” value [1, 4] of the same molecule?
**A.** 0.4 IU/L

**Q.** What about the “SHBG (female) LSM Difference in % CFB” value [1, 4] of the same molecule?
**A.** 119.5%

**Q.** What about the “SHBG (female) LSM Difference in CFB” value [1, 4] of the same molecule?
**A.** 39.9 nmol/L

**Q.** And the “SHBG (male) LSM Difference in % CFB” value [1, 4]?
**A.** 69.7%

**Q.** And the “SHBG (male) LSM Difference in CFB” value [1, 4]?
**A.** 24.5 (3.9) nmol/L

**Q.** And the “SHBG LSM Difference in % CFB” value [1, 4]?
**A.** 96.0%

**Q.** And the “SHBG LSM Difference in CFB” value [1, 4]?
**A.** 32.1 nmol/L

**Q.** What about the “Testosterone (female) LSM Difference” value [1, 4] of the same molecule?
**A.** 0.1 µg/L

**Q.** What about the “Testosterone (male) LSM Difference” value [1, 4] of the same molecule?
**A.** 1.5 µg/L

**Q.** What about the “Estradiol (female) LSM CFB” value ([1]; Resmetirom 80 mg DB) of the same molecule?
**A.** 5.0 ng/L

**Q.** And the “Estradiol (male) LSM CFB” value ([1]; Resmetirom 80 mg DB)?
**A.** 3.3 ng/L

**Q.** What about the “FSH (female) LSM CFB” value ([1]; Resmetirom 80 mg DB) of the same molecule?
**A.** 0.9 IU/L

**Q.** What about the “FSH (male) LSM CFB” value ([1]; Resmetirom 80 mg DB) of the same molecule?
**A.** 0.3 IU/L

**Q.** And the “Free testosterone (female) LSM CFB” value ([1]; Resmetirom 80 mg DB)?
**A.** 0.0004 µg/L

**Q.** And the “Free testosterone (male) LSM CFB” value ([1]; Resmetirom 80 mg DB)?
**A.** 0.0077 µg/L

**Q.** What about the “LH (female) LSM CFB” value ([1]; Resmetirom 80 mg DB) of the same molecule?
**A.** 0.8 IU/L

**Q.** What about the “LH (male) LSM CFB” value ([1]; Resmetirom 80 mg DB) of the same molecule?
**A.** 0.4 IU/L

**Q.** And the “SHBG (female) LSM % CFB” value ([1]; Resmetirom 80 mg DB)?
**A.** 133.0%

**Q.** And the “SHBG (female) LSM CFB” value ([1]; Resmetirom 80 mg DB)?
**A.** 43.3 nmol/L

**Q.** What about the “SHBG (male) LSM % CFB” value ([1]; Resmetirom 80 mg DB) of the same molecule?
**A.** 67.1%

**Q.** And the “SHBG (male) LSM CFB” value ([1]; Resmetirom 80 mg DB)?
**A.** 21.9 nmol/L

**Q.** And the “SHBG LSM % CFB” value ([1]; Resmetirom 80 mg DB)?
**A.** 99.6%

**Q.** What about the “SHBG LSM CFB” value ([1]; Resmetirom 80 mg DB) of the same molecule?
**A.** 32.7 nmol/L

**Q.** And the “Testosterone (female) LSM CFB” value ([1]; Resmetirom 80 mg DB)?
**A.** 0.1 µg/L

**Q.** What about the “Testosterone (male) LSM CFB” value ([1]; Resmetirom 80 mg DB) of the same molecule?
**A.** 1.4 µg/L

**Q.** And the “Estradiol (female) LSM Difference” value [1, 5]?
**A.** 9.5 ng/L

**Q.** What about the “Estradiol (male) LSM Difference” value [1, 5] of the same molecule?
**A.** 10.4 ng/L

**Q.** What about the “FSH (female) LSM Difference” value [1, 5] of the same molecule?
**A.** −0.4 IU/L

**Q.** And the “FSH (male) LSM Difference” value [1, 5]?
**A.** 0.5 IU/L

**Q.** And the “Free testosterone (female) LSM Difference” value [1, 5]?
**A.** -0.0006 µg/L

**Q.** What about the “Free testosterone (male) LSM Difference” value [1, 5] of the same molecule?
**A.** 0.0029 µg/L

**Q.** What about the “LH (female) LSM Difference” value [1, 5] of the same molecule?
**A.** −0.5 IU/L

**Q.** And the “LH (male) LSM Difference” value [1, 5]?
**A.** 0.8 IU/L

**Q.** What about the “SHBG (female) LSM Difference in % CFB” value [1, 5] of the same molecule?
**A.** 184.0%

**Q.** What about the “SHBG (female) LSM Difference in CFB” value [1, 5] of the same molecule?
**A.** 61.8 nmol/L

**Q.** What about the “SHBG (male) LSM Difference in % CFB” value [1, 5] of the same molecule?
**A.** 125.5%

**Q.** What about the “SHBG (male) LSM Difference in CFB” value [1, 5] of the same molecule?
**A.** 41.7 (3.8) nmol/L

**Q.** And the “SHBG LSM Difference in % CFB” value [1, 5]?
**A.** 157.5%

**Q.** And the “SHBG LSM Difference in CFB” value [1, 5]?
**A.** 52.4 nmol/L

**Q.** And the “Testosterone (female) LSM Difference” value [1, 5]?
**A.** 0.1 µg/L

**Q.** What about the “Testosterone (male) LSM Difference” value [1, 5] of the same molecule?
**A.** 2.1 µg/L

**Q.** And the “Estradiol (female) LSM CFB” value ([1]; Resmetirom 100 mg DB)?
**A.** 7.5 ng/L

**Q.** What about the “Estradiol (male) LSM CFB” value ([1]; Resmetirom 100 mg DB) of the same molecule?
**A.** 8.9 ng/L

**Q.** And the “FSH (female) LSM CFB” value ([1]; Resmetirom 100 mg DB)?
**A.** 1.6 IU/L

**Q.** What about the “FSH (male) LSM CFB” value ([1]; Resmetirom 100 mg DB) of the same molecule?
**A.** 0.6 IU/L

**Q.** And the “Free testosterone (female) LSM CFB” value ([1]; Resmetirom 100 mg DB)?
**A.** -0.0003 µg/L

**Q.** And the “Free testosterone (male) LSM CFB” value ([1]; Resmetirom 100 mg DB)?
**A.** -0.0009 µg/L

**Q.** And the “LH (female) LSM CFB” value ([1]; Resmetirom 100 mg DB)?
**A.** 1.2 IU/L

**Q.** And the “LH (male) LSM CFB” value ([1]; Resmetirom 100 mg DB)?
**A.** 0.9 IU/L

**Q.** And the “SHBG (female) LSM % CFB” value ([1]; Resmetirom 100 mg DB)?
**A.** 197.6%

**Q.** What about the “SHBG (female) LSM CFB” value ([1]; Resmetirom 100 mg DB) of the same molecule?
**A.** 65.3 nmol/L

**Q.** And the “SHBG (male) LSM % CFB” value ([1]; Resmetirom 100 mg DB)?
**A.** 122.9%

**Q.** What about the “SHBG (male) LSM CFB” value ([1]; Resmetirom 100 mg DB) of the same molecule?
**A.** 39.2 nmol/L

**Q.** What about the “SHBG LSM % CFB” value ([1]; Resmetirom 100 mg DB) of the same molecule?
**A.** 161.1%

**Q.** What about the “SHBG LSM CFB” value ([1]; Resmetirom 100 mg DB) of the same molecule?
**A.** 53.0 nmol/L

**Q.** And the “Testosterone (female) LSM CFB” value ([1]; Resmetirom 100 mg DB)?
**A.** 0.1 µg/L

**Q.** What about the “Testosterone (male) LSM CFB” value ([1]; Resmetirom 100 mg DB) of the same molecule?
**A.** 2.0 µg/L

**Q.** And the “Estradiol (female) LSM CFB” value ([1]; Resmetirom 100 mg OL)?
**A.** 11.0 ng/L

**Q.** What about the “Estradiol (male) LSM CFB” value ([1]; Resmetirom 100 mg OL) of the same molecule?
**A.** 11.7 ng/L

**Q.** And the “FSH (female) LSM CFB” value ([1]; Resmetirom 100 mg OL)?
**A.** 1.3 IU/L

**Q.** And the “FSH (male) LSM CFB” value ([1]; Resmetirom 100 mg OL)?
**A.** 0.6 IU/L

**Q.** And the “Free testosterone (female) LSM CFB” value ([1]; Resmetirom 100 mg OL)?
**A.** -0.0006 µg/L

**Q.** What about the “Free testosterone (male) LSM CFB” value ([1]; Resmetirom 100 mg OL) of the same molecule?
**A.** 0.024 µg/L

**Q.** What about the “LH (female) LSM CFB” value ([1]; Resmetirom 100 mg OL) of the same molecule?
**A.** −0.0 IU/L

**Q.** And the “LH (male) LSM CFB” value ([1]; Resmetirom 100 mg OL)?
**A.** 0.3 IU/L

**Q.** What about the “SHBG (female) LSM % CFB” value ([1]; Resmetirom 100 mg OL) of the same molecule?
**A.** 199.3%

**Q.** And the “SHBG (female) LSM CFB” value ([1]; Resmetirom 100 mg OL)?
**A.** 68.6 nmol/L

**Q.** And the “SHBG (male) LSM % CFB” value ([1]; Resmetirom 100 mg OL)?
**A.** 156.0%

**Q.** What about the “SHBG (male) LSM CFB” value ([1]; Resmetirom 100 mg OL) of the same molecule?
**A.** 44.7 nmol/L

**Q.** And the “SHBG LSM % CFB” value ([1]; Resmetirom 100 mg OL)?
**A.** 182.6%

**Q.** What about the “SHBG LSM CFB” value ([1]; Resmetirom 100 mg OL) of the same molecule?
**A.** 60.3 nmol/L

**Q.** What about the “Testosterone (female) LSM CFB” value ([1]; Resmetirom 100 mg OL) of the same molecule?
**A.** 0.1 µg/L

**Q.** And the “Testosterone (male) LSM CFB” value ([1]; Resmetirom 100 mg OL)?
**A.** 2.8 µg/L

**Q.** And the “hepatic fat reduction, 80 mg compared with 100 mg” value ([2]; 80 mg resmetirom, in general)?
**A.** less effective than 100 mg resmetirom

**Q.** What about the “hepatic fat (MRI-PDFF), change from baseline” value ([2]; Week 52, all key patient subgroups) of the same molecule?
**A.** reduced hepatic fat from baseline

**Q.** What about the “hepatic fat reduction by subgroup” value ([2]; weight gain ≥5% or <120% increase in SHBG) of the same molecule?
**A.** lower hepatic fat reduction

**Q.** And the “hepatic fat reduction by subgroup” value ([2]; weight loss ≥5% or ≥120% increase from baseline in SHBG)?
**A.** greater reduction in hepatic fat

**Q.** What about the “Liver volume in patient subgroups” value ([3]; all key patient subgroups of the OL arm) of the same molecule?
**A.** reductions in liver volume were observed

**Q.** And the “Liver volume, mean reduction from baseline” value ([3]; 16 weeks)?
**A.** 21%

**Q.** And the “Liver volume, mean reduction from baseline” value ([3]; 52 weeks)?
**A.** 23%

**Q.** And the “average hepatic fat reduction corrected for reduced liver volume” value ([3]; open-label arm)?
**A.** 61%
